Experimental data published in patent publication US10233177B2, “TRPV1 vanilloid receptor antagonists with a bicyclic portion” (Serentrix LLC, priority 2010, dated 2019).
Where two headings read alike, the source gives them in different places.

Target: TRPV1 (Rattus norvegicus (Rat), UniProt O35433)
Experiment: Ca2+ fluorescence measurements in cultured rat dorsal root ganglia neurons (capsaicin-induced calcium uptake)
Type: cell-based
Settings: for inhibition at 0.3 µM: DRG neuron; for inhibition at 0.3 µM / IC50: rat DRG neurons
[1] = Table 1, formula IA-C, 300 nM against calcium uptake induced by 30 nM capsaicin, read-out: % inhibition at 300 nM
[2] = capsaicin-induced calcium uptake, read-out: inhibition of the calcium uptake
[3] = Table 2, formula ID-E, 300 nM against calcium uptake induced by 30 nM capsaicin, read-out: % inhibition at 300 nM
[4] = 300 nM, read-out: abolition of capsaicin response at 300 nM
[5] = Table 1, against capsaicin-evoked [Ca2+]i mobilization, read-out: IC50
[6] = read-out: IC50 against capsaicin-evoked [Ca2+]i mobilization

TRPV1, sequence (O35433 whole entry): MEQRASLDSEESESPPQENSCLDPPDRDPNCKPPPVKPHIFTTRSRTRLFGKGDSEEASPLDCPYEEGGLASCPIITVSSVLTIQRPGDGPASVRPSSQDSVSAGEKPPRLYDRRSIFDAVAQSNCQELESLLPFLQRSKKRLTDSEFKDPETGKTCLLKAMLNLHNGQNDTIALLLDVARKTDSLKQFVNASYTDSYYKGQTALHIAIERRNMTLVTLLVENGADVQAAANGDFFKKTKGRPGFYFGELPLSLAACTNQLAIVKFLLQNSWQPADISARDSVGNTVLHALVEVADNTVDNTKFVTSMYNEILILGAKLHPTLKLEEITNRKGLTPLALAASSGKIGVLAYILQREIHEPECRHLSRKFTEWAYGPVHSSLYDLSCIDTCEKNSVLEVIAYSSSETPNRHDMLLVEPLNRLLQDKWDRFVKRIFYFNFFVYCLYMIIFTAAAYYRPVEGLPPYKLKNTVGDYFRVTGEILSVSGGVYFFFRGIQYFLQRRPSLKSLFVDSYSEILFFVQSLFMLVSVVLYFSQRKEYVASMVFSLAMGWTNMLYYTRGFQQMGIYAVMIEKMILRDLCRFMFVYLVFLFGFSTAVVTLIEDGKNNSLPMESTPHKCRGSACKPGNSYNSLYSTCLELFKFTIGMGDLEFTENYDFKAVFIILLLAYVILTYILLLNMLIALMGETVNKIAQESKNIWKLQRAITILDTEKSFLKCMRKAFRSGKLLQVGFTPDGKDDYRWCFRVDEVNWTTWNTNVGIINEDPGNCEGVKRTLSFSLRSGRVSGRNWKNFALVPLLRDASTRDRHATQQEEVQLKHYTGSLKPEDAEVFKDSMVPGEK

Cc1ccc(CNC(=O)Nc2cccc3[nH]c(=O)[nH]c23)c(N2CCCCC2)n1 [Example 40, 1-[[6-methyl-2-(1-piperidyl)-3-pyridyl]methyl]-3-(2-oxo-1,3-dihydrobenzimidazol-4-yl)urea]
inhibition at 0.3 µM [1]: 52%

CN(C)c1cc(Cl)ccc1CNC(=O)Nc1cccc2c1OCC(=O)N2 [Example 50, 1-(4-chloro-2-(dimethylamino)benzyl)-3-(3,4-dihydro-3-oxo-2H-benzo[b][1,4]oxazin-8-yl)urea]
inhibition at 0.3 µM [1]: 52%

CC(C)Oc1nc(C(F)(F)F)ccc1CNC(=O)Nc1cccc2[nH]c(=O)[nH]c12 [Example 68, 1-[[2-isopropoxy-6-(trifluoromethyl)-3-pyridyl]methyl]-3-(2-oxo-1,3-dihydrobenzimidazol-4-yl)urea]
inhibition at 0.3 µM [1]: 93% | inhibition at 0.3 µM [2]: > 80%

O=C(Cc1ccc(C(F)(F)F)cc1)Nc1cccc2oc(=O)[nH]c12 [Example 56, 2-(4-(trifluoromethyl)phenyl)-N-(2,3-dihydro-2-oxobenzo[d]oxazol-4-yl)acetamide]
inhibition at 0.3 µM [3]: 31%

Cc1ccc(CNC(=O)Nc2cccc3c2OCC(=O)N3)c(OC(C)C)c1 [Example 84, 1-[(2-isopropoxy-4-methyl-phenyl)methyl]-3-(3-oxo-4H-1,4-benzoxazin-8-yl)urea]
inhibition at 0.3 µM [1]: 61%

CN(C)c1ccc(CNC(=O)Nc2cccc3[nH]c(=O)[nH]c23)cc1 [Example 14, 1-(4-(dimethylamino)benzyl)-3-(2,3-dihydro-2-oxo-1H-benzo[d]imidazol-4-yl)urea]
inhibition at 0.3 µM [1]: 32%

Cc1ccc(CNC(=O)Nc2cccc3c2OCC(=O)N3)c(N2CCCCC2)n1 [Example 80, 1-[[6-methyl-2-(1-piperidyl)-3-pyridyl]methyl]-3-(3-oxo-4H-1,4-benzoxazin-8-yl)urea]
inhibition at 0.3 µM [4]: ~100% | inhibition at 0.3 µM [1]: 95% | inhibition at 0.3 µM [2]: > 80%

O=C(NCc1ccc(Cl)cc1)Nc1cccc2oc(=O)[nH]c12 [Example 33, 1-(4-chlorobenzyl)-3-(2,3-dihydro-2-oxobenzo[d]oxazol-4-yl)urea]
inhibition at 0.3 µM [1]: 16%

O=C1COc2c(cccc2NC(=O)NCc2ccc(C(F)(F)F)cn2)N1 [Example 83, 1-(3-oxo-4H-1,4-benzoxazin-8-yl)-3-[[5-(trifluoromethyl)-2-pyridyl]methyl]urea]
inhibition at 0.3 µM [1]: 57%

O=C1COc2cccc(NC(=O)NCc3ccc(C(F)(F)F)cc3)c2N1 [Example 42, 1-(4-(trifluoromethyl)benzyl)-3-(3,4-dihydro-3-oxo-2H-benzo[b][1,4]oxazin-5-yl)urea]
inhibition at 0.3 µM [1]: 30%

CC(C)Oc1cc(C(F)(F)F)ccc1CNC(=O)Nc1cccc2c1OCC(=O)N2 [Example 81, 1-[[2-isopropoxy-4-(trifluoromethyl)phenyl]methyl]-3-(3-oxo-4H-1,4-benzoxazin-8-yl)urea]
inhibition at 0.3 µM [4]: ~100% | inhibition at 0.3 µM [1]: 100% | inhibition at 0.3 µM [2]: > 80%

Cc1ccc(CNC(=O)Nc2cccc3[nH]c(=O)[nH]c23)c(N(C)C)c1 [Example 18, 1-(2-(dimethylamino)-4-methylbenzyl)-3-(2,3-dihydro-2-oxo-1H-benzo[d]imidazol-4-yl)urea]
inhibition at 0.3 µM [1]: 54%

O=C(NCc1ccc(C(F)(F)F)cc1N1CCCC1)Nc1cccc2oc(=O)[nH]c12 [Example 30, 1-(4-(trifluoromethyl)-2-(pyrrolidin-1-yl)benzyl)-3-(2,3-dihydro-2-oxobenzo[d]oxazol-4-yl)urea]
inhibition at 0.3 µM [1]: 44%

CN(C)c1cc(C(F)(F)F)ccc1CNC(=O)Nc1cccc2[nH]c(=O)[nH]c12 [Example 4, 1-(2-(dimethylamino)-4-(trifluoromethyl)benzyl)-3-(2,3-dihydro-2-oxo-1H-benzo[d]imidazol-4-yl)urea]
inhibition at 0.3 µM [4]: ~100% | inhibition at 0.3 µM [1]: 100% | inhibition at 0.3 µM [2]: > 80% | IC50 [5]: 4.07 nM | IC50 [6]: 4.07 nM

O=C1COc2c(cccc2NC(=O)NCc2ccc(C(F)(F)F)cc2)N1 [Example 45, 1-(4-(trifluoromethyl)benzyl)-3-(3,4-dihydro-3-oxo-2H-benzo[b][1,4]oxazin-8-yl)urea]
inhibition at 0.3 µM [4]: ~100% | inhibition at 0.3 µM [1]: 100% | inhibition at 0.3 µM [2]: > 80%

CC(C)(C)c1ccc(CNC(=O)Nc2cccc3[nH]c(=O)[nH]c23)c(N2CCCC2)c1 [Example 75, 1-[(4-tert-butyl-2-pyrrolidin-1-yl-phenyl)methyl]-3-(2-oxo-1,3-dihydrobenzimidazol-4-yl)urea]
inhibition at 0.3 µM [4]: ~100% | inhibition at 0.3 µM [1]: 100% | inhibition at 0.3 µM [2]: > 80% | IC50 [5]: 0.84 nM | IC50 [6]: 0.84 nM

Cc1ccc(CNC(=O)Nc2cccc3c2OCC(=O)N3)c(N2CCCCC2)c1 [Example 53, 1-(4-methyl-2-(piperidin-1-yl)benzyl)-3-(3,4-dihydro-3-oxo-2H-benzo[b][1,4]oxazin-8-yl)urea]
inhibition at 0.3 µM [4]: ~100% | inhibition at 0.3 µM [1]: 90% | inhibition at 0.3 µM [2]: > 80%

Cc1ccc(CNC(=O)Nc2cccc3[nH]c(=O)[nH]c23)c(N2CCCCC2)c1 [Example 19, 1-(4-methyl-2-(piperidin-1-yl)benzyl)-3-(2,3-dihydro-2-oxo-1H-benzo[d]imidazol-4-yl)urea]
inhibition at 0.3 µM [4]: ~100% | inhibition at 0.3 µM [1]: 99% | inhibition at 0.3 µM [2]: > 80%

O=C(NCc1ccc(Cl)cc1)Nc1cccc2[nH]c(=O)[nH]c12 [Example 10, 1-(4-chlorobenzyl)-3-(2,3-dihydro-2-oxo-1H-benzo[d]imidazol-4-yl)urea]
inhibition at 0.3 µM [1]: 89% | inhibition at 0.3 µM [2]: > 80% | IC50 [5]: 79 nM

O=C(Cc1ccc(C(F)(F)F)cc1)Nc1cccc2c1NC(=O)CO2 [Example 58, 2-(4-(trifluoromethyl)phenyl)-N-(3,4-dihydro-3-oxo-2H-benzo[b][1,4]oxazin-5-yl)acetamide]
inhibition at 0.3 µM [3]: 43%

O=C(Cc1ccc(C(F)(F)F)cc1)Nc1cccc2[nH]c(=O)oc12 [Example 57, 2-(4-(trifluoromethyl)phenyl)-N-(2,3-dihydro-2-oxobenzo[d]oxazol-7-yl)acetamide]
inhibition at 0.3 µM [3]: 7%

O=C(NCc1ccc(C(F)(F)F)cn1)Nc1cccc2[nH]c(=O)[nH]c12 [Example 41, 1-(2-oxo-1,3-dihydrobenzimidazol-4-yl)-3-[[5-(trifluoromethyl)-2-pyridyl]methyl]urea]
inhibition at 0.3 µM [1]: 88% | inhibition at 0.3 µM [2]: > 80%

O=C(NCc1ccc(Cl)nc1)Nc1cccc2[nH]c(=O)[nH]c12 [Example 21, 1-((6-chloropyridin-3-yl)methyl)-3-(2,3-dihydro-2-oxo-1H-benzo[d]imidazol-4-yl)urea]
inhibition at 0.3 µM [1]: 79%

Cc1ccc(CNC(=O)Nc2cccc3c2OCC(=O)N3)c(N2CCCC2)c1 [Example 90, 1-[(4-methyl-2-pyrrolidin-1-yl-phenyl)methyl]-3-(3-oxo-4H-1,4-benzoxazin-8-yl)urea]
inhibition at 0.3 µM [1]: 47%

COc1cc(CNC(=O)CCCC/C=C/C(C)C)ccc1O [Capsaicin, capsaicin, reference compound]
dorsal root ganglia neurons with increase in [Ca2+] (capsaicin 0.3 μM): 95%

CC(C)(C)c1ccc(CNC(=O)Nc2cccc3c2OCC(=O)N3)cc1 [Example 89, 1-[(4-tert-butylphenyl)methyl]-3-(3-oxo-4H-1,4-benzoxazin-8-yl)urea]
inhibition at 0.3 µM [1]: 92% | inhibition at 0.3 µM [2]: > 80% | IC50 [5]: 19.8 nM

CN(C)CCOc1cc(C(F)(F)F)ccc1CNC(=O)Nc1cccc2c1OCC(=O)N2 [Example 92, 1-[[2-(2-dimethylaminoethoxy)-4-(trifluoromethyl)phenyl]methyl]-3-(3-oxo-4H-1,4-benzoxazin-8-yl)urea]
inhibition at 0.3 µM [1]: 12%

O=C(NCc1ccc(N2CCCCC2)cc1)Nc1cccc2[nH]c(=O)[nH]c12 [Example 16, 1-(4-(piperidin-1-yl)benzyl)-3-(2,3-dihydro-2-oxo-1H-benzo[d]imidazol-4-yl)urea]
inhibition at 0.3 µM [1]: 86% | inhibition at 0.3 µM [2]: > 80%

CC(C)Oc1cc(C(F)(F)F)ccc1CNC(=O)Nc1cccc2[nH]c(=O)[nH]c12 [Example 67, 1-[[2-isopropoxy-4-(trifluoromethyl)phenyl]methyl]-3-(2-oxo-1,3-dihydrobenzimidazol-4-yl)urea]
inhibition at 0.3 µM [4]: ~100% | inhibition at 0.3 µM [1]: 100% | inhibition at 0.3 µM [2]: > 80% | IC50 [5]: 20 nM

O=C1COc2c(cccc2NC(=O)NCc2ccc(C(F)(F)F)nc2)N1 [Example 77, 1-(3-oxo-4H-1,4-benzoxazin-8-yl)-3-[[6-(trifluoromethyl)-3-pyridyl]methyl]urea]
inhibition at 0.3 µM [1]: 71%

O=C(NCc1ccncc1)Nc1cccc2[nH]c(=O)[nH]c12 [Example 20, 1-(2,3-dihydro-2-oxo-1H-benzo[d]imidazol-4-yl)-3-((pyridin-4-yl)methyl)urea]
inhibition at 0.3 µM [1]: 18%

O=C(NCc1ccc(Cl)cc1C(F)(F)F)Nc1cccc2oc(=O)[nH]c12 [Example 28, 1-(4-chloro-2-(trifluoromethyl)benzyl)-3-(2,3-dihydro-2-oxobenzo[d]oxazol-4-yl)urea]
inhibition at 0.3 µM [1]: 40%

COc1nc(C(F)(F)F)ccc1CNC(=O)Nc1cccc2c1OCC(=O)N2 [Example 82, 1-[[2-methoxy-6-(trifluoromethyl)-3-pyridyl]methyl]-3-(3-oxo-4H-1,4-benzoxazin-8-yl)urea]
inhibition at 0.3 µM [1]: 90% | inhibition at 0.3 µM [2]: > 80% | IC50 [5]: 54 nM

O=C1COc2c(cccc2NC(=O)NCc2ccc(C(F)(F)F)cc2-n2ccnc2)N1 [Example 88, 1-[[2-(imidazol-1-yl)-4-(trifluoromethyl)phenyl]methyl]-3-(3-oxo-4H-1,4-benzoxazin-8-yl)urea]
inhibition at 0.3 µM [1]: 75%

O=C(NCc1ccc(C(F)(F)F)cc1F)Nc1cccc2[nH]c(=O)[nH]c12 [Example 2, 1-(2-fluoro-4-(trifluoromethyl)benzyl)-3-(2,3-dihydro-2-oxo-1H-benzo[d]imidazol-4-yl)urea]
inhibition at 0.3 µM [1]: 28%
